Test results from US20240067657A1, “AMIDO-SUBSTITUTED PYRIDYL COMPOUNDS AND METHODS OF USE THEREOF FOR THE TREATMENT OF HERPESVIRUSES” (Merck Sharp & Dohme LLC, priority 2020, published 2024).
Read-outs that look alike come from different tables or passages of the source.

Key:
[1] = target: T1, Human cytomegalovirus DNA polymerase (Human cytomegalovirus, UniProt P08546); assay: HCMV polymerase assay (AlphaLISA, IC50); assay type: biochemical; conditions: polymerase assay of Example 190
T1 construct: made in house; host or cells: SF21 insect cells (baculovirus vector)
T1 sequence (P08546 whole entry): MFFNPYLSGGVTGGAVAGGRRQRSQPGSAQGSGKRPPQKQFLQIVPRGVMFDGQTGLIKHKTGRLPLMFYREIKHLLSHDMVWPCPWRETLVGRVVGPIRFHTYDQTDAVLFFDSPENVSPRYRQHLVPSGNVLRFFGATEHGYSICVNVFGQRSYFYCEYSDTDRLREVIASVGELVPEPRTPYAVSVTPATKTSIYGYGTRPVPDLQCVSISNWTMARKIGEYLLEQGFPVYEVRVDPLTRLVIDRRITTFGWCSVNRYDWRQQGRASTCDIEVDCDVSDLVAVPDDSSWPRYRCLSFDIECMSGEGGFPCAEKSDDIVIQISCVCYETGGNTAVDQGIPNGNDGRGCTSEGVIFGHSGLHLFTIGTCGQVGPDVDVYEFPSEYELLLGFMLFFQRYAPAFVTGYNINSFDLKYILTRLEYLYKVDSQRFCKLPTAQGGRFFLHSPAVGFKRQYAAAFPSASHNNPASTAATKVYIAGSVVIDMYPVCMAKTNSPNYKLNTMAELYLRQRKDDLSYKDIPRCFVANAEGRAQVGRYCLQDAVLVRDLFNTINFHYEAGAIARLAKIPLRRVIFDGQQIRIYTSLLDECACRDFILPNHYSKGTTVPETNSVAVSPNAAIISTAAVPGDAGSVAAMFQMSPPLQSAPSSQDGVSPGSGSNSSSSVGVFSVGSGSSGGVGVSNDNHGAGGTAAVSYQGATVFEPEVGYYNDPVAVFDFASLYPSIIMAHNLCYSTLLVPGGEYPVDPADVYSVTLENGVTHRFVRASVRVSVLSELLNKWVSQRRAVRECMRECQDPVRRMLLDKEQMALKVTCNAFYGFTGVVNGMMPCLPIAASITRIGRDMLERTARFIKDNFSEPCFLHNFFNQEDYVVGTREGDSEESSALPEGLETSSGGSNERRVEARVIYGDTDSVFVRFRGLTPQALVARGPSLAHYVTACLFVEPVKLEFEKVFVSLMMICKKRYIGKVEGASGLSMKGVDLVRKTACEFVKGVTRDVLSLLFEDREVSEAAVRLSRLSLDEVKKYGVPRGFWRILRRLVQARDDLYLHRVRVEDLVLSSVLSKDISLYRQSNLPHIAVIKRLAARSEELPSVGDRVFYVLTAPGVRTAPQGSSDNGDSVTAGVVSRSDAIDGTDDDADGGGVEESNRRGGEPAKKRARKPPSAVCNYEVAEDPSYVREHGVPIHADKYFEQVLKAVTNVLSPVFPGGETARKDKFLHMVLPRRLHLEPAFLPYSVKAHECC
Method in brief: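 Baculovirus-expressed polymerase (HCMV 0.2 nM, VZV 0.4 nM final) preincubated 30 min at room temperature with compound in pH 7.5 HEPES buffer; reaction started with 1.6 nM DIG-primer/template and nM dNTPs including biotin-dUTP, run 60 min at 37° C. Incorporation detected by AlphaLISA; IC50 from 4-parameter fit.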

[2] = target: T2, varicella zoster virus DNA polymerase (Varicella-zoster virus, UniProt P09252); assay: VZV polymerase assay (AlphaLISA, IC50); assay type: biochemical; conditions: polymerase assay of Example 190
T2 construct: made in house; host or cells: SF21 insect cells (baculovirus vector)
T2 sequence (P09252 whole entry): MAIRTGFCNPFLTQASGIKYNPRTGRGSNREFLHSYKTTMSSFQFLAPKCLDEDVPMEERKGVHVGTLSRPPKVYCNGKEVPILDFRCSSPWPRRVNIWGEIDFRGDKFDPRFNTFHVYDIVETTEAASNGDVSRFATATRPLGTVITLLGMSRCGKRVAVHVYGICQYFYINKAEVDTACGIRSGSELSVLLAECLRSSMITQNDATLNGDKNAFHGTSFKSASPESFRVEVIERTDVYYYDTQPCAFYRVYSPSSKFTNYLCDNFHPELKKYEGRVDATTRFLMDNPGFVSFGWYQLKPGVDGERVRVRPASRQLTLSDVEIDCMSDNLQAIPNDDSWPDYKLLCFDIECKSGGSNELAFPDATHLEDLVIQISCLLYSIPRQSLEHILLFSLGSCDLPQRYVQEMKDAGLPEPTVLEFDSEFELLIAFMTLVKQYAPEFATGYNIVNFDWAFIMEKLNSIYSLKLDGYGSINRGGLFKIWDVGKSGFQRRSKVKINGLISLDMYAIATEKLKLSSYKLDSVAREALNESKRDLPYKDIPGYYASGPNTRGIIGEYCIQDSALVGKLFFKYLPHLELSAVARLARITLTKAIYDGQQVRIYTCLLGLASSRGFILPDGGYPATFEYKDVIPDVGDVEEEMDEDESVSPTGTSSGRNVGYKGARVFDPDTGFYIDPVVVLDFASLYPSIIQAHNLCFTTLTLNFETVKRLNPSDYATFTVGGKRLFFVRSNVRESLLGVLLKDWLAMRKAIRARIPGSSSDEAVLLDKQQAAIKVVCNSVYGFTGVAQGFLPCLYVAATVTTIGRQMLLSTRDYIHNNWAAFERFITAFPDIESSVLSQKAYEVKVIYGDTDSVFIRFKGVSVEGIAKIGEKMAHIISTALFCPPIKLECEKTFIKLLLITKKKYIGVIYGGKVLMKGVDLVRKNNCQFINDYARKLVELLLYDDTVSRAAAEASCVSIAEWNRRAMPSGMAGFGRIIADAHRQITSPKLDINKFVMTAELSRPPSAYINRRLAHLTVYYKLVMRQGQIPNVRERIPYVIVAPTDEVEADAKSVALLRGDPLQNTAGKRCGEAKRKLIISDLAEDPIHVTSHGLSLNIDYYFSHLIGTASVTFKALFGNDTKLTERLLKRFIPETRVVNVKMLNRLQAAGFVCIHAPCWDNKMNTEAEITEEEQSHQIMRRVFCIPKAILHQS
Protocol: Human cytomegalovirus and varicella zoster virus DNA polymerases were expressed via baculovirus vector in SF21 cells and purified. Heterodimeric nucleic acid substrate used in the herpesvirus polymerase reactions was generated by annealing a 59-mer template to a 17-mer digoxigenin-labeled primer. Polymerase (HCMV final concentration of 0.2 nM; VZV final concentration of 0.4 nM) was combined with an inhibitor compound or DMSO in assay buffer (10 mM HEPES, pH 7.5, 25 mM KCl, 25 mM NaCl, 5 mM MgCl2, 5% glycerol, 0.67 mg/ml bovine serum albuminutes, and 1 mM tris(2-carboxyethyl)phosphine), and this mixture was pre-incubated for 30 minutes at room temperature in 384-well microtiter plates. The polymerization reaction was initiated by the addition of template/primer substrate (final concentration: 1.6 nM), and dNTPs (final concentration: 24 nM dCTP, 24 nMdGTP, 16 nM dATP, 16 nM dTTP, and 0.8 nM biotin-dUTP). After 60 minutes incubation at 37° C., reactions were terminated with quench buffer (25 mM HEPES pH 7.5, 100 mM NaCl, 0.25% Tween-20, 12 mM EDTA, and 1 mg/ml bovine serum albumin). Incorporation of biotinylated UTP was detected with 2.5-5 ug/ml anti-DIG AlphaLISA acceptor beads and 5-10 ug/ml streptavidin AlphaLISA donor beads (Perkin Elmer). Compound effects were normalized to the window defined by the controls (DMSO only and pre-quenched wells), and were fit using a 4-parameter algorithm to report an IC50.

[3] = system: HCMV Strain AD169 in MRC-5 cells; assay: Viral qPCR assay HCMV (V0/V1, V2/V3), EC50; assay type: cell-based
Method in brief: (§1)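 Infected cells added to compounds (10-point 3-fold series), ~72 h at 37 °C, then lysed; viral genomes by TaqMan qPCR against plasmid standard, normalized to PPIA in V0/V1 only, EC50 from 4-parameter fit. HCMV AD169, 0.05-0.1 pfu/cell, ± 50% FBS; VZV 0.04-0.1 pfu/cell; HSV-1 F 0.0005-0.004 pfu/cell.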

[4] = system: VZV in MeWo or MRC5 cells; assay: Viral qPCR assay VZV (V0/V1, V2/V3), EC50; assay type: cell-based
Method in brief: as §1

[5] = system: HSV-1 Strain F in Vero or MRC5 cells; assay: Viral qPCR assay HSV-1 (V0/V1, V2/V3), EC50; assay type: cell-based
Method in brief: as §1

[6] = Human betaherpesvirus 5, AD169, MRC5, viral qPCR assay of Example 191, read-out: HCMV Cell (EC50)
[7] = Human alphaherpesvirus 3, MRC5, MRC5 cells, 10%, read-out: VZV Cell (EC50) MRC5 10%
[8] = Human alphaherpesvirus 3, MeWo, MEWO cells, 10%, read-out: VZV Cell (EC50) MEWO 10%
[9] = Human alphaherpesvirus 1, MRC5, MRC5 cells, 10%, read-out: HSV1 Cell (EC50) MRC5 10%
[10] = Human alphaherpesvirus 1, Vero, VERO cells, 10%, read-out: HSV1 Cell (EC50) VERO 10%
[11] = Human betaherpesvirus 5, AD169, MRC5, read-out: HCMV Cell (EC50)
[12] = Human alphaherpesvirus 3, MeWo, read-out: VZV Cell (EC50) MEWO 10%
[13] = Human alphaherpesvirus 1, Vero, read-out: HSV1 Cell (EC50) VERO 10%

Cc1cnc(-c2cnc(C(=O)NCc3ccc(Cl)cc3)cc2O[C@H]2CCN3C(=O)OC[C@@H]3C2)s1 [Compound 41]
IC50 [1]: 5 nM
IC50 [2]: 3.88 nM
EC50 [3, 6]: 89.9 nM
EC50 [4, 7]: 97.4 nM
EC50 [4, 8]: 70.8 nM
EC50 [5, 9]: 39 nM
EC50 [5, 10]: 12.2 nM

O=C(NCc1ccc(Cl)cc1)c1cc(O[C@H]2CCN3C(=O)CC[C@@H]3C2)c(-c2cnn(C(F)F)c2)cn1 [Compound 166]
IC50 [1]: 9.49 nM
IC50 [2]: 8.58 nM
EC50 [3, 6]: 565 nM
EC50 [4, 7]: 241 nM
EC50 [5, 9]: 370 nM

Cn1cc(-c2cnc(C(=O)NCc3ccc(Cl)c(F)c3)cc2O[C@H]2CCN3C(=O)OC[C@@H]3C2)cn1 [Compound 96]
IC50 [1]: 5.46 nM
IC50 [2]: 3.36 nM
EC50 [3, 6]: 86.3 nM
EC50 [4, 7]: 132 nM
EC50 [4, 8]: 53.6 nM
EC50 [5, 9]: 71 nM
EC50 [5, 10]: 118 nM

CC(=O)N1CCC(Oc2cc(C(=O)NCc3ccc(Cl)cc3)ncc2-c2cc[nH]n2)CC1 [Compound 64]
IC50 [1]: 164 nM
IC50 [2]: 65.3 nM
EC50 [3, 6]: 1020 nM
EC50 [4, 8]: 440 nM
EC50 [5, 10]: 1170 nM

Cn1cc(-c2cnc(C(=O)NCc3ccc(F)c(F)c3F)cc2O[C@H]2CCN3C(=O)OC[C@@H]3C2)cn1 [Compound 94]
IC50 [1]: 31.7 nM
IC50 [2]: 21.4 nM
EC50 [3, 6]: 111 nM
EC50 [4, 7]: 427 nM
EC50 [4, 8]: 155 nM
EC50 [5, 9]: 412 nM
EC50 [5, 10]: 368 nM

O=C(NCc1ccc(Cl)cc1)c1cc(O[C@H]2CCN3C(=O)OC[C@@H]3C2)c(-c2cnc(C(F)F)o2)cn1 [Compound 148]
IC50 [1]: 2.53 nM
IC50 [2]: 4.47 nM
EC50 [3, 6]: 163 nM
EC50 [4, 7]: 229 nM
EC50 [5, 9]: 129 nM

CC(C)(C)n1cc(-c2cnc(C(=O)NCc3ccc(Cl)cc3)cc2O[C@H]2CCN3C(=O)OC[C@@H]3C2)cn1 (racemic) [Compound 12]
IC50 [1]: 70.5 nM
IC50 [2]: 69.6 nM
EC50 [3, 6]: 1160 nM
EC50 [4, 8]: 977 nM
EC50 [5, 10]: 882 nM

O=C(NCc1ccc(Cl)cc1)c1cc(O[C@H]2CCN3C(=O)OC[C@@H]3C2)c(N2CC(O)C2)cn1 [Compound 122]
IC50 [1]: 19.2 nM
IC50 [2]: 9.04 nM
EC50 [3, 6]: 121 nM
EC50 [4, 7]: 582 nM
EC50 [5, 9]: 520 nM

CC(=O)N1CCC(Oc2cc(C(=O)NCc3ccc(Cl)cc3)ncc2-c2cn(C)c(C)n2)CC1 [Compound 48]
IC50 [1]: 31.9 nM
IC50 [2]: 29.4 nM
EC50 [3, 6]: 373 nM
EC50 [4, 7]: 294 nM
EC50 [5, 9]: 190 nM

O=C(NCc1ccc(Cl)cc1)c1cc(O[C@H]2CCN3C(=O)OC[C@@H]3C2)c(CN2CCSCC2)cn1 [Compound 139]
IC50 [1]: 33 nM
IC50 [2]: 13.3 nM
EC50 [3, 6]: 417 nM
EC50 [4, 7]: 1180 nM
EC50 [5, 10]: 545 nM

O=C(NCc1ccc(Cl)cc1)c1cc(O[C@H]2CCN3C(=O)OC[C@@H]3C2)c(CCn2cccn2)cn1 [Compound 115]
IC50 [1]: 173 nM
IC50 [2]: 132 nM
EC50 [3, 6]: 1720 nM
EC50 [4, 8]: 900 nM
EC50 [5, 10]: 1280 nM

CC(=O)N1CCC(Oc2cc(C(=O)NCc3ccc(Cl)cc3)ncc2-c2cnc(C3CC3)o2)CC1 [Compound 67]
IC50 [1]: 50.7 nM
IC50 [2]: 21.7 nM
EC50 [3, 6]: 612 nM
EC50 [4, 7]: 706 nM
EC50 [5, 9]: 660 nM

Cc1cnn(-c2cnc(C(=O)NCc3ccc(Cl)cc3)cc2O[C@H]2CCN3C(=O)OC[C@@H]3C2)c1 [Compound 105]
IC50 [1]: 223 nM
IC50 [2]: 139 nM
EC50 [3, 6]: 1300 nM
EC50 [4, 8]: 870 nM
EC50 [5, 10]: 655 nM

O=C(NCc1ccc(Cl)cc1)c1cc(O[C@H]2CCN3C(=O)OC[C@@H]3C2)c(-c2cnn(C3COC3)c2)cn1 [Compound 36]
IC50 [1]: 4.44 nM
IC50 [2]: 2.47 nM
EC50 [3, 6]: 172 nM
EC50 [4, 7]: 175 nM
EC50 [5, 9]: 146 nM
EC50 [5, 10]: 432 nM

COc1cnc(C(=O)NCc2ccc(Cl)cc2)cc1O[C@H]1CCN2C(=O)OC[C@@H]2C1 [Compound 129]
IC50 [1]: 54 nM
IC50 [2]: 18 nM
EC50 [3, 11]: 546 nM
EC50 [4, 12]: 278 nM
EC50 [5, 13]: 339 nM

COC(C)(C)Cc1cnc(C(=O)NCc2ccc(Cl)cc2)cc1O[C@H]1CCN2C(=O)OC[C@@H]2C1 [Compound 107]
IC50 [1]: 24 nM
IC50 [2]: 3.07 nM
EC50 [3, 6]: 549 nM
EC50 [4, 7]: 582 nM
EC50 [5, 9]: 473 nM

CC(=O)N1CCC(Oc2cc(C(=O)NCc3ccc(Cl)cc3)ncc2-c2cnc(C)o2)CC1 [Compound 66]
IC50 [1]: 47.4 nM
IC50 [2]: 18.6 nM
EC50 [3, 6]: 250 nM
EC50 [4, 7]: 288 nM
EC50 [5, 9]: 242 nM

O=C(NCc1ccc(Cl)cc1)c1cc(O[C@H]2CCN3C(=O)OC[C@@H]3C2)c(-c2cc[nH]n2)cn1 [Compound 18]
IC50 [1]: 15.7 nM
IC50 [2]: 10.5 nM
EC50 [3, 6]: 120 nM
EC50 [4, 7]: 126 nM
EC50 [4, 8]: 392 nM
EC50 [5, 9]: 194 nM
EC50 [5, 10]: 836 nM

Cn1cc(-c2cnc(C(=O)NCc3ccc(Cl)cc3)cc2O[C@H]2CCN3C(=O)COC[C@@H]3C2)cn1 (racemic) [Compound 157]
IC50 [1]: 150 nM
IC50 [2]: 70.8 nM
EC50 [3, 11]: 901 nM
EC50 [4, 12]: 852 nM
EC50 [5, 13]: 222 nM

CO[C@H]1CN(Cc2cnc(C(=O)NCc3ccc(Cl)cc3)cc2O[C@H]2CCN3C(=O)OC[C@@H]3C2)[C@@H]1C (mixture of isomers) [Compound 137]
IC50 [1]: 35 nM
IC50 [2]: 36.7 nM
EC50 [3, 6]: 575 nM
EC50 [4, 7]: 1420 nM
EC50 [5, 10]: 602 nM

O=C(NCc1ccc(Cl)cc1)c1cc(O[C@H]2CCN3C(=O)OC[C@@H]3C2)c(-c2ccn(C(F)F)n2)cn1 [Compound 26]
IC50 [1]: 13.9 nM
IC50 [2]: 13.9 nM
EC50 [3, 6]: 280 nM
EC50 [4, 7]: 4590 nM
EC50 [5, 9]: ≥ 80200 nM
EC50 [5, 10]: 119 nM

CC(=O)N1CCC(Oc2cc(C(=O)NCc3ccc(Cl)cc3)[n+]([O-])cc2-c2cnn(C(F)F)c2)CC1 [Compound 132]
IC50 [1]: 161 nM
IC50 [2]: 40.3 nM
EC50 [3, 6]: 1320 nM
EC50 [4, 8]: 510 nM
EC50 [5, 10]: 401 nM

CC(=O)N1CCC(Oc2cc(C(=O)NCc3ccc(Cl)cc3)ncc2-c2cnn(C)c2)CC1 [Compound 6]
IC50 [1]: 79 nM
IC50 [2]: 30.8 nM
EC50 [3, 6]: 342 nM
EC50 [4, 8]: 84.5 nM
EC50 [5, 10]: 144 nM
